# Positions count from the first letter of the chain named.
# Columns and labels:
# [1] = system: human peripheral blood neutrophils; assay: NETosis assay in human neutrophils (SYTOX Green, DNA area); format: cell-based; settings: PMA; SAR analogs compared to LDC7559
# Procedure: Freshly purified neutrophils were plated at 6 × 10^3 cells/well in glass bottom 96-well plates (SensoPlate, Greiner Bio-One 82050-792) in the RPMI medium described above. Cells were pretreated with DMSO vehicle, 0.5 μM NA-11, 100 μM apocynin, 0.5 μM and 5 μM PALP, or 0.5 μM and 5 μM LDC7559 for 30 min, and then stimulated with 50 nM PMA, 1 μM f-MLP, 5 μg/mL cholesterol crystals, 10 μg/mL LPS, 25 μM nigericin, or 25 μM calcymicin (A23187) for 3 h (except in Figures S1A, 6A and S7C, where cells were stimulated for 4 h). Cells were fixed and permeabilized in 2.5% paraformaldehyde (PFA) and 0.02% Triton X-100 in PBS for 30 min. For quantification of NETosis, cells were stained with 150 nM SYTOX Green and imaged in a KEYENCE Fluorescence Microscope (KEYENCE, ZB-X800E) at 10 x magnification. For immunolabeling, fixed cells were blocked with 2% BSA for 1 h, and then stained with anti-CitH3 and anti-MPO antibodies at a dilution of 1/200 in 1% BSA in PBS. Images were taken at 60 x magnification using an ImageXpress Micro Confocal high-content imaging system (Molecular Devices).
# Semi-automated analysis of both phase and fluorescence images of SYTOX Green-stained neutrophils used a specialized MATLAB algorithm. Total cells were counted by scoring phase standard deviation and radial symmetry. NETosis was classified in cells by measuring the DNA area in the fluorescence image and comparing with a select internal training set for each experiment. Unstimulated cells and PMA-stimulated, […] cells served as negative controls. PMA-stimulated cells served as a positive control. NET-forming cells are presented as a percentage of total cells.
# PMNs = assay: NADPH/NADP+ detection assay in neutrophils; format: cell-based, human; settings: PMA 30 min, then apocynin
# Procedure: The ratio of NADPH/NADP^+ (or NADH/NAD^+) was calculated after measuring the individual concentrations of NADPH and NADP^+ (or NADH and NAD^+) with NADP/NADPH-Glo (or NAD/NADH-Glo) assays (Promega). […] Cells were lysed in plates by addition of 1% dodecyltrimethylammonium bromide (DTAB). To measure NADPH, half of the samples was heated at 60 °C for 30 min. The other half was treated with HCl before heating to 60°C, to measure NADP^+. All samples were neutralized before adding luciferase detection reagent, then incubated for 1 h with gentle shaking. Luminescence was recorded on a plate reader (Envision).
# [2] = target: T1, PFKM+pocket (R315 to lysine) (Homo sapiens, UniProt P08237, R315K); assay: Recombinant PFKM+pocket activity assay; format: biochemical; settings: at 4 mM ATP
# T1 construct: made in house; host or cells: Sf9 insect cells (baculovirus)
# T1 sequence (P08237 1-780 R315K): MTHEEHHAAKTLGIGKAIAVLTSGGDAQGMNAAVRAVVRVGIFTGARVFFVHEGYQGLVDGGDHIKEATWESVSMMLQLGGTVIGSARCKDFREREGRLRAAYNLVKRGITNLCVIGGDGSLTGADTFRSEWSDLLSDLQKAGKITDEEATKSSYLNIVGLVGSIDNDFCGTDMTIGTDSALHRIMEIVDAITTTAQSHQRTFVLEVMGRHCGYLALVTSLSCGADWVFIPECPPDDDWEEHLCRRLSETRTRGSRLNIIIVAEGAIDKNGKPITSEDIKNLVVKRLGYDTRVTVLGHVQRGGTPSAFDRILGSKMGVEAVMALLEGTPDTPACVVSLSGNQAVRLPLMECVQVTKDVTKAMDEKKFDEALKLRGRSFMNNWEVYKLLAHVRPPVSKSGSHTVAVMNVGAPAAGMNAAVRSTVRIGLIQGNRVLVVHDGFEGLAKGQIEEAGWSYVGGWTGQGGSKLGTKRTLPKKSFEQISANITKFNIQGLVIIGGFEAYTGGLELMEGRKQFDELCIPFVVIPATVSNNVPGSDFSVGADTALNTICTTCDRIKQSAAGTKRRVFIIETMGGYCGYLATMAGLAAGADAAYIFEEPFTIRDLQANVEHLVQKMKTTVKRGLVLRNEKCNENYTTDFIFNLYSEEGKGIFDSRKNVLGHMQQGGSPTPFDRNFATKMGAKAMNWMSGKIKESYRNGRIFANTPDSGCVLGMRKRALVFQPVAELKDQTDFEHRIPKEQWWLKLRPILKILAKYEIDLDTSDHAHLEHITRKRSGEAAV
# Description: (§1) Recombinant N-terminal His-tagged human PFKL (NP_002617), PFKM (NP_000280), and PFKP (NM_002627.4) were generated as described ([Webb et al., 2015], [2017]). Point mutants of PFK1 were generated using the QuikChange Lightning kit (Aligent).
# (§2) His-tagged PFK1 was expressed and purified as described with slight modifications ([Webb et al., 2015], [2017]). Briefly, baculovirus was generated using the Bac-to-Bac Expression system (Invitrogen). PFK1 was expressed in 2-5 × 10^6 sf9 cells at a multiplicity of infection of two for 48 h. Cells were lysed in 20 mM HEPES, pH 7.5, 80 mM potassium phosphate, 1 mM 2-mercapentoethanol, 10% glycerol, 10 mM imidazole, and EDTA-free Protease Inhibitor Cocktail (Abcam) with a Dounce homogenizer. The soluble lysate was incubated with HisPur cobalt resin (ThermoFisher Scientific). The resin was washed with 5 bead volumes lysis buffer, 10 bead volumes lysis buffer containing 2 M NaCl, and 5 further bead volumes lysis buffer. PFK1 was eluted in lysis buffer containing 100 mM imidazole. Fractions containing protein were pooled, passed over a desalting column equilibrated in freezing buffer [20 mM HEPES pH 7.5, 1 mM DTT, 500 μM ammonium sulfate, 5% glycerol, 1 mM ATP, and 100 μM EDTA] and concentrated using an Amicon Ultracel-30K Centrifugal Filter Unit (MilliporeSigma). Protein was quantified using a Bradford Protein Assay kit (ThermoFisher Scientific), and aliquotes frozen in liquid nitrogen for storage at −80°C.
# PFK1 activity was determined using the rate of FBP production via an auxiliary enzyme assay adapted to a 96-well format ([Brüser et al., 2012]; [Webb et al., 2015]). The auxiliary enzymes aldolase, triosephosphate isomerase, and glycerol phosphate dehydrogenase were purchased from MilliporeSigma as ammonium sulfate slurries and desalted using an Amicon Ultracel-10K Centrifugal Filter Unit. For assays containing FBP, the rate of ADP production was determined using the auxiliary enzymes pyruvate kinase (PK) and lactate dehydrogenase (LDH) (MilliporeSigma) in a buffer containing 250 μM phosphoenolpyruvic acid, […] NADH, 50 mM HEPES pH 7.5, 100 mM KCl, 1 mM DTT, and effector concentrations as described in the text. The temperature was equilibrated to 25°C for 5 min before initiating the reaction 10 mM MgCl2. Absorbance at 340 nm was measured using a Varioskan LUX Multimode microplate reader (ThermoFisher). Kinetic parameters were generated by nonlinear regression analysis using Prism (GraphPad Software) and are the mean of a minimum of three measurements from two independent preparations of protein. One unit of activity was defined as the amount of enzyme that catalyzed the formation of 1 μmol of fructose 1,6-bisphosphate per min at 25°C. […]
# PFKL = target: T2, PFKL (Homo sapiens, UniProt P17858); assay: Recombinant PFKL activity assay (relief of ATP inhibition); format: biochemical; settings: at 3.1 mM ATP; F6P approximately twice the Km,F6P
# T2 construct: made in house; host or cells: Sf9 insect cells (baculovirus, Bac-to-Bac)
# T2 sequence (P17858 1-780): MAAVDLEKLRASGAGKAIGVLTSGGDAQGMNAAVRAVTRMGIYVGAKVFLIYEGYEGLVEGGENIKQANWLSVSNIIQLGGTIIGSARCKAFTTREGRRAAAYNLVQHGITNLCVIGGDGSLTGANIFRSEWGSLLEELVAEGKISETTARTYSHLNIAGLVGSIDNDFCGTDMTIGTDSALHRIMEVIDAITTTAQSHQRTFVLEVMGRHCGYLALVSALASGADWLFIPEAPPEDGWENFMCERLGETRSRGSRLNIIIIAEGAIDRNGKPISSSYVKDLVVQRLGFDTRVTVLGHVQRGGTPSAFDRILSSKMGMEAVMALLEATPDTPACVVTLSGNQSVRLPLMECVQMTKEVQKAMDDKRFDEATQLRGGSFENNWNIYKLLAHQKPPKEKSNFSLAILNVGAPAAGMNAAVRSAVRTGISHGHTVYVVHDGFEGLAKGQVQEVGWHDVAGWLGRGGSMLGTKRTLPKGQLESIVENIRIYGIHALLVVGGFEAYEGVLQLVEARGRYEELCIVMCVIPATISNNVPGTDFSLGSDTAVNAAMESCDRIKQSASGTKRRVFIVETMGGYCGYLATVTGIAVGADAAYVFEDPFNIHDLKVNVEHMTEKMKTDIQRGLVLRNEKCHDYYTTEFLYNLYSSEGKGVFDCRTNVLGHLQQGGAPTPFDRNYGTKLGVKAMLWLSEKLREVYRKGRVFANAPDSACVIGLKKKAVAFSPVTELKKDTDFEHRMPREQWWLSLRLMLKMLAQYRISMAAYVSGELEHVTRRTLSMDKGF
# Description: as §1, §2
# (§3) PFK1 activity was determined using the rate of FBP production via an auxiliary enzyme assay adapted to a 96-well format ([Brüser et al., 2012]; [Webb et al., 2015]). The auxiliary enzymes aldolase, triosephosphate isomerase, and glycerol phosphate dehydrogenase were purchased from MilliporeSigma as ammonium sulfate slurries and desalted using an Amicon Ultracel-10K Centrifugal Filter Unit. For assays containing FBP, the rate of ADP production was determined using the auxiliary enzymes pyruvate kinase (PK) and lactate dehydrogenase (LDH) (MilliporeSigma) in a buffer containing 250 μM phosphoenolpyruvic acid, […] NADH, 50 mM HEPES pH 7.5, 100 mM KCl, 1 mM DTT, and effector concentrations as described in the text. The temperature was equilibrated to 25°C for 5 min before initiating the reaction 10 mM MgCl2. Absorbance at 340 nm was measured using a Varioskan LUX Multimode microplate reader (ThermoFisher). Kinetic parameters were generated by nonlinear regression analysis using Prism (GraphPad Software) and are the mean of a minimum of three measurements from two independent preparations of protein. One unit of activity was defined as the amount of enzyme that catalyzed the formation of 1 μmol of fructose 1,6-bisphosphate per min at 25°C. Assays for PFKM were performed at pH 7.0 due to the pH-dependence of ATP inhibition ([Trivedi and Danforth, 1966]).
# [3] = target: T3, PFKL (K315R, V545L, and V582M), PFKL3Mut (Homo sapiens, UniProt P17858, K315R/V545L/V582M); assay: Recombinant PFKL3Mut activity assay; format: biochemical; settings: at 3.1 mM ATP; F6P approximately twice the Km,F6P
# T3 construct: made in house; host or cells: Sf9 insect cells (baculovirus)
# T3 sequence (P17858 1-780 K315R/V545L/V582M): T2 sequence (P17858 1-780) with K315R, V545L, V582M
# Description: as §1, §2, §3
# PFK1 = PFK1 activity in PMN lysates; format: cell-based, human; settings: neutrophils treated with PMA, LPS, or cholesterol crystals
# Procedure: PFK1 activity assays from neutrophil lysates were modified from Abrantes et al., 2012. Briefly, neutrophils (10^7) were cultured with 0.5 μM NA-11 for 30 min, and then stimulated with 50 nM PMA, 5 μg/mL cholesterol crystals, 10 μg/mL LPS or 25 μM nigericin for 30 min. Cells were lysed in 10 mM PBS, 1% Triton X-100, and 1 x EDTA-free protease inhibitor cocktail on ice for 10 min. The soluble protein lysates were quantified by BCA assay (Pierce) and adjusted to 0.3125 mg/mL with lysis buffer. Lysate (80 μL) was mixed with 100 μL 2x enzyme cocktail solution (100 mM Tris-HCL pH7.4, 10 mM MgCl2, 0.5 mM ATP, 0.3 mM NADH, 1.35 units/mL Aldolase, 10 units/mL Triose phosphate isomerase, 4 units/mL glycerophosphate dehydrogenase, 20 mM ammonium sulfate) equilibrated to reach room temperature for 5 min. 20 μL of Fructose-6-phosphate (40 mM) was added and the reaction monitored for NADH decrease (absorbance at 340 nm) every 30 s for 30 min. Specific activity is in pmoles FBP per min per mg lysate.
Compound,inhibition of PMA-induced NETosis [1],also measured
COc1ccc(-c2cc3n(n2)Cc2ccc(NC(C)=O)cc2OC3)cc1 [NA-7],slight increase in inhibitory activity,–
"NC(=O)c1ccc(N)nc1 [6-aminonicotinamide, reference compound]",–,NADPH replenishment / turnover after apocynin (PMNs): effectively blocked NADPH turnover
CC(=O)Nc1ccc2c(c1)OCc1cc(Br)nn1C2 [NA-8],inactive,–
Nc1ncnc2c1ncn2[C@@H]1O[C@H](COP(=O)(O)OP(=O)(O)OP(=O)(O)O)[C@@H](O)[C@H]1O [ATP],–,inhibition of PFKM+pocket [2]: > 90%; ATP inhibition of wild-type PFKL (PFKL): > 80%; inhibition of mutant PFKL (PFKL3Mut) [3]: > 80%
COc1cccc(-c2cc3n(n2)Cc2ccc(NC(C)=O)cc2OC3)c1 [NA-6],slight increase in inhibitory activity,–
bisindolylmaleimide [reference compound],–,activation-induced reduction in PFK1 activity (PFK1): prevented the decrease in PFKL activity
CC(=O)Nc1ccc2c(c1)OCc1cc(-c3cccc(C#CCCCO)c3)nn1C2 [NA-10],largely tolerated,–
CC#CCC(=O)Nc1ccc2c(c1)OCc1cc(-c3ccccc3OC)nn1C2 [NA-2],no inhibitor activity,–
CC#CCC(=O)Nc1cccc(-c2cc3n(n2)Cc2ccc(NC(C)=O)cc2OC3)c1 [NA-9],largely tolerated,–

# Source: paper PMC8802628, “Selective activation of PFKL suppresses the phagocytic oxidative burst” (Cell, 2021)
